Two compounds from patent US20040116516A1 (Boehringer Ingelheim Pharma GmbH & Co. KG, priority 2002, published 2004) can be followed below.

Each structure is given as a SMILES string.

In the experiment the test system is arachidonic acid induced mouse ear inflammation. The experiment in a line: arachidonic acid induced mouse ear inflammation test (MPO as index of neutrophil accumulation). The experiment is classed as in vivo, mice. Conditions: for maximum inhibitory effect: group5; for effect on arachidonic acid induced ear inflammation in mice (in words): single compounds, oral administration. As for the experimental part:
Female albino mice (Han:NMRI) obtained from Interfauna and weighing about 20-25 g were used. The animals were provided with standardised pellet diet (Altromin 8013) and had tap water freely available. The animals were accommodated in a climatized room with a 12 hours light/dark cycle and kept in groups.
The compound of formula IA and meloxicam were administered orally (0.2 ml/10 g bw) 30 min. before arachidonic acid challenge. Meloxicam was given twice: one dose 16 hours and the second dose 30 minutes before challenge. For every day there was a concurrent control. Then number of animals per group was 7. The study compounds were suspended in 1% methylcellulose (Tylose MH 300, Fluka, CH-9470 Buchs). The experiment was run in five groups. Every group contained one control, two doses of meloxicam, two doses of (IA), and one dose of the combination of the two compounds.
Mice were lightly anesthetized by ether and 1 mg arachidonic acid (10 μl) was applied to each side of the left ear. […] The animals were sacrificed by ether 6 hours later, and a biopsy (diameter 8 mm) was punched out from both ears to assess an increase of neutrophils in the left ear compared with the right ear. Tissue samples were homogenized in 1 ml 0.5% HTAB (Hexadecyl-trimethyl-ammonium-bromide; Sigma H-5882; solved in 0.05 M phosphate buffer, pH 6.0) using a tissue homogenizer (IKA-Ultraturrax T5; Janke & Kunkel, Staufen/Breisgau) at 30000 RPM for 15 seconds. After centrifugation (16000 G, 5 min) the supernatants were frozen until processing for myeloperoxidase (MPO). Determination in the supernatants for MPO, a neutrophil marker enzyme, served as a quantitative index for the neutrophil accumulation.
MPO was determined spectrophotometrically at 450 nm using a micro plate version of the method of Bradley (1982) and a micro plate reader (Vmax; Molecular Devices, Palo Alto) suitable for kinetic measurements and expressed as mean optical density per minute.
For each individual the response myeloperoxidase activity (MPO) in optical density per minute (oD/min) was measured.
For the comparisons the nonparametric statistical methods Kruskal-Wallis-One-Way-ANOVA and the Wilcoxon-Two-Sample-Test (2 sided) have been used. For the first and last comparisons also Bonferroni-Holm adjusted p-values have been calculated.

As for `CCOC(=O)N=C(N)c1ccc(OCc2cccc(COc3ccc(C(C)(C)c4ccc(O)cc4)cc3)c2)cc1`, the “effect on arachidonic acid induced ear inflammation in mice (in words)” value is “inhibited arachidonic acid induced ear inflammation in mice”. The maximum inhibitory effect (supra-maximum doses 0.8 and 1.6 mg/kg p.o.) turned out to be 66%.

For `Cc1cnc(NC(=O)C2=C(O)c3ccccc3S(=O)(=O)N2C)s1` [Meloxicam, meloxicam], the “effect on arachidonic acid induced ear inflammation in mice (in words)” value is recorded as “inhibited arachidonic acid induced ear inflammation in mice”. Under “supra-maximum doses 16 and 32 mg/kg p.o.”, the maximum inhibitory effect is 37%.
